Assay results as given in patent US20170190671A1, “BIS(ARYL)CATECHOL DERIVATIVES AS HERBICIDES” (E I DU PONT DE NEMOURS AND COMPANY, priority 2014, published 2017).

Legend:
Assay in all cases: Test C postemergence
Format in all cases: in vivo
[1] = system: Italian ryegrass (Lolium multiflorum); conditions: Lolium multiflorum, post-emergence, 336 h, Postemergence, scale 0 to 100, read-out: Plant response rating, Ryegrass, Italian
Procedure, shortened: (§1)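 Seeded loam-sand soil (preemergence) or young potted plants of 2-18 cm (postemergence) received test chemical formulated with surfactant in a non-phytotoxic solvent. Pots were kept in the greenhouse for 13-15 days before a visual 0-100 control rating relative to controls.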

[2] = system: barnyardgrass (Echinochloa crus-galli); conditions: Echinochloa crus-galli, post-emergence, Postemergence, scale 0 to 100, read-out: Plant response rating, Barnyardgrass
Procedure, shortened: as §1

[3] = system: blackgrass (Alopecurus myosuroides); conditions: Alopecurus myosuroides, post-emergence, 336 h, Postemergence, scale 0 to 100, read-out: Plant response rating, Blackgrass
Procedure, shortened: as §1

[4] = system: chickweed (common chickweed, Stellaria media); conditions: Stellaria media, post-emergence, Postemergence, scale 0 to 100, read-out: Plant response rating, Chickweed
Procedure, shortened: as §1

corn (Zea mays) = conditions: Zea mays, post-emergence, 336 h, Postemergence, scale 0 to 100
Procedure, shortened: as §1

[5] = system: giant foxtail (Setaria faberii); conditions: Setaria faberi, post-emergence, 336 h, Postemergence, scale 0 to 100, read-out: Plant response rating, Foxtail, Giant
Procedure, shortened: as §1

[6] = system: johnsongrass (Sorghum halepense); conditions: Sorghum halepense, post-emergence, 336 h, Postemergence, scale 0 to 100, read-out: Plant response rating, Johnsongrass
Procedure, shortened: as §1

[7] = system: lambsquarters (Chenopodium album); conditions: Chenopodium album, post-emergence, 336 h, Postemergence, scale 0 to 100, read-out: Plant response rating, Lambsquarters
Procedure, shortened: as §1

[8] = system: oilseed rape (Brassica napus); conditions: Brassica napus, post-emergence, Postemergence, scale 0 to 100, read-out: Plant response rating, Oilseed Rape
Procedure, shortened: as §1

[9] = system: pigweed (Amaranthus retroflexus); conditions: Amaranthus retroflexus, post-emergence, 336 h, Postemergence, scale 0 to 100, read-out: Plant response rating, Pigweed
Procedure, shortened: as §1

[10] = system: ragweed (common ragweed, Ambrosia elatior); conditions: Ambrosia artemisiifolia, post-emergence, 336 h, Postemergence, scale 0 to 100, read-out: Plant response rating, Ragweed
Procedure, shortened: as §1

soybean (Glycine max) = conditions: Glycine max, post-emergence, Postemergence, scale 0 to 100, read-out: Plant response rating, Soybean
Procedure, shortened: as §1

[11] = system: waterhemp (common waterhemp, Amaranthus rudis); conditions: Amaranthus tuberculatus, post-emergence, Postemergence, scale 0 to 100, read-out: Plant response rating, Waterhemp
Procedure, shortened: as §1

wild oat (Avena fatua) = conditions: Avena fatua, post-emergence, Postemergence, scale 0 to 100, read-out: Plant response rating, Oat, Wild
Procedure, shortened: as §1

[12] = system: yellow nutsedge (Cyperus esculentus); conditions: Cyperus, post-emergence, 336 h, Postemergence, scale 0 to 100, read-out: Plant response rating, Nutsedge, Yellow
Procedure, shortened: as §1

`Fc1cccc(Oc2ncc(Cl)cn2)c1Oc1ncc(Cl)cn1` [Compound 21, 2,2′-[[3-fluoro-1,2-phenylene]bis(oxy)]bis[5-chloropyrimidine]] gave a pest or weed control at 31 g/ha ([1]; 31 g ai/ha) of 0%, a pest or weed control at 62 g/ha ([1]; 62 g ai/ha) of 0% and a pest or weed control at 125 g/ha ([1]; 125 g ai/ha) of 25%. It also gave a pest or weed control at 16 g/ha ([2]; 16 g ai/ha) of 5%, a pest or weed control at 31 g/ha ([2]; 31 g ai/ha) of 5% and a pest or weed control at 62 g/ha ([2]; 62 g ai/ha) of 5%. It also gave a pest or weed control at 125 g/ha ([2]; 125 g ai/ha) of 5%, a pest or weed control at 16 g/ha ([3]; 16 g ai/ha) of 5% and a pest or weed control at 31 g/ha ([3]; 31 g ai/ha) of 5%. It also gave a pest or weed control at 62 g/ha ([3]; 62 g ai/ha) of 20%, a pest or weed control at 125 g/ha ([3]; 125 g ai/ha) of 70% and a pest or weed control at 16 g/ha ([4]; 16 g ai/ha) of 50%. For the same compound, the pest or weed control at 31 g/ha ([4]; 31 g ai/ha) was 50%, the pest or weed control at 62 g/ha ([4]; 62 g ai/ha) was 60% and the pest or weed control at 125 g/ha ([4]; 125 g ai/ha) was 100%. The Corn plant response rating (crop injury, 0 = no effect, 100 = complete kill) at 16 g/ha (corn (Zea mays); 16 g ai/ha) was 0%, the Corn plant response rating (crop injury, 0 = no effect, 100 = complete kill) at 31 g/ha (corn (Zea mays); 31 g ai/ha) was 5% and the Corn plant response rating (crop injury, 0 = no effect, 100 = complete kill) at 62 g/ha (corn (Zea mays); 62 g ai/ha) was 5%. The Corn plant response rating (crop injury, 0 = no effect, 100 = complete kill) at 125 g/ha (corn (Zea mays); 125 g ai/ha) was 5%, the pest or weed control at 16 g/ha ([5]; 16 g ai/ha) was 5% and the pest or weed control at 31 g/ha ([5]; 31 g ai/ha) was 5%. For the same compound, the pest or weed control at 62 g/ha ([5]; 62 g ai/ha) was 20%, the pest or weed control at 125 g/ha ([5]; 125 g ai/ha) was 20% and the pest or weed control at 16 g/ha ([6]; 16 g ai/ha) was 5%. It also gave a pest or weed control at 31 g/ha ([6]; 31 g ai/ha) of 5%, a pest or weed control at 62 g/ha ([6]; 62 g ai/ha) of 5% and a pest or weed control at 125 g/ha ([6]; 125 g ai/ha) of 5%. The pest or weed control at 16 g/ha ([7]; 16 g ai/ha) was 15%, the pest or weed control at 31 g/ha ([7]; 31 g ai/ha) was 70% and the pest or weed control at 62 g/ha ([7]; 62 g ai/ha) was 98%. For the same compound, the pest or weed control at 125 g/ha ([7]; 125 g ai/ha) was 90%, the plant injury at 31 g/ha ([8]; 31 g ai/ha) was 55% and the plant injury at 62 g/ha ([8]; 62 g ai/ha) was 60%. It also gave a plant injury at 125 g/ha ([8]; 125 g ai/ha) of 80%, a pest or weed control at 31 g/ha ([9]; 31 g ai/ha) of 75% and a pest or weed control at 62 g/ha ([9]; 62 g ai/ha) of 85%. The pest or weed control at 125 g/ha ([9]; 125 g ai/ha) was 95%, the pest or weed control at 31 g/ha ([10]; 31 g ai/ha) was 30% and the pest or weed control at 62 g/ha ([10]; 62 g ai/ha) was 60%. It also gave a pest or weed control at 125 g/ha ([10]; 125 g ai/ha) of 95%, a plant injury at 31 g/ha (soybean (Glycine max); 31 g ai/ha) of 65% and a plant injury at 62 g/ha (soybean (Glycine max); 62 g ai/ha) of 95%. It also gave a plant injury at 125 g/ha (soybean (Glycine max); 125 g ai/ha) of 95%, a pest or weed control at 31 g/ha ([11]; 31 g ai/ha) of 60% and a pest or weed control at 62 g/ha ([11]; 62 g ai/ha) of 50%. The pest or weed control at 125 g/ha ([11]; 125 g ai/ha) was 65%, the pest or weed control at 31 g/ha (wild oat (Avena fatua); 31 g ai/ha) was 0% and the pest or weed control at 62 g/ha (wild oat (Avena fatua); 62 g ai/ha) was 0%. The pest or weed control at 125 g/ha (wild oat (Avena fatua); 125 g ai/ha) was 40%, the pest or weed control at 31 g/ha ([12]; 31 g ai/ha) was 5% and the pest or weed control at 62 g/ha ([12]; 62 g ai/ha) was 5%. The pest or weed control at 125 g/ha ([12]; 125 g ai/ha) was 5%.
